Data taken from PMC11003488 (Journal of Enzyme Inhibition and Medicinal Chemistry, 2023).
Like-named read-outs stand apart in the source and are kept apart here.

Key:
K-562 = test: NCI-60 SRB growth inhibition, one-dose and five-dose; type: cell-based; conditions: Homo sapiens
MOLT-4 = test: as above; type: cell-based; conditions: Homo sapiens
EKVX = test: as above; type: cell-based; conditions: Homo sapiens
HOP-62 = test: as above; type: cell-based; conditions: Homo sapiens
NCI-H23 = test: as above; type: cell-based; conditions: Homo sapiens
NCI-H322M = test: as above; type: cell-based; conditions: Homo sapiens
NCI-H522 = test: as above; type: cell-based; conditions: Homo sapiens
HCC-2998 = test: as above; type: cell-based; conditions: Homo sapiens
SF-295 = test: as above; type: cell-based; conditions: Homo sapiens
SF-539 = test: as above; type: cell-based; conditions: Homo sapiens
LOX IMVI = test: as above; type: cell-based; conditions: Homo sapiens
SK-MEL-2 = test: as above; type: cell-based; conditions: Homo sapiens
SK-MEL-28 = test: as above; type: cell-based; conditions: Homo sapiens
UACC-257 = test: as above; type: cell-based; conditions: Homo sapiens
SK-OV-3 = test: as above; type: cell-based; conditions: Homo sapiens
RXF 393 = test: as above; type: cell-based; conditions: Homo sapiens
UO-31 = test: as above; type: cell-based; conditions: Homo sapiens
PC-3 = test: as above; type: cell-based; conditions: Homo sapiens
MDA-MB-231/ATCC = test: as above; type: cell-based; conditions: Homo sapiens
Leukaemia cell lines = test: NCI-60 SRB growth inhibition, subpanel; type: cell-based, human; conditions: for GI50: Homo sapiens
[1] = read-out: percent growth inhibition

COc1ccc(CNc2cccc(C(=O)/C=C/c3ccc(NC(C)=O)cc3)c2)cc1OC [Compound 5h, (E)-N-(4–(3-(3-((3,4-dimethoxybenzyl)amino)phenyl)-3-oxoprop-1-en-1-yl)phenyl) acetamide]
GI50 (K-562; K562): 2.5 µM | inhibition at 10 µM (K-562; K562, read-out: percent growth inhibition): 92.2% | GI50 (MOLT-4; MOLT-4): 2.68 µM | inhibition at 10 µM (MOLT-4; MOLT-4, read-out: percent growth inhibition): 78.3% | GI50 (EKVX): 4.09 µM | inhibition at 10 µM (EKVX; [1]): 94.9% | GI50 (HOP-62; HOP-62): 7.25 µM | inhibition at 10 µM (HOP-62; HOP-62, read-out: percent growth inhibition): 62.3% | GI50 (NCI-H23; NCI-H23): 4.26 µM | inhibition at 10 µM (NCI-H23; NCI-H23, read-out: percent growth inhibition): 105% | GI50 (NCI-H322M): 13.6 µM | inhibition at 10 µM (NCI-H322M; [1]): 32% | GI50 (NCI-H522; NCI-H522): 8.85 µM | inhibition at 10 µM (NCI-H522; NCI-H522, read-out: percent growth inhibition): 150% | GI50 (HCC-2998; HCC 2998): 3.3 µM | inhibition at 10 µM (HCC-2998; HCC 2998, read-out: percent growth inhibition): 176% | GI50 (SF-295; SF-295): 7.83 µM | inhibition at 10 µM (SF-295; SF-295, read-out: percent growth inhibition): 84.1% | GI50 (SF-539; SF-539): 2.31 µM | inhibition at 10 µM (SF-539; SF-539, read-out: percent growth inhibition): 174% | GI50 (LOX IMVI): 1.8 µM | inhibition at 10 µM (LOX IMVI; [1]): 181% | GI50 (SK-MEL-2; SK-MEL-2): 10.6 µM | inhibition at 10 µM (SK-MEL-2; SK-MEL-2, read-out: percent growth inhibition): 53.7% | GI50 (SK-MEL-28; SK-MEL-28): 2.82 µM | inhibition at 10 µM (SK-MEL-28; SK-MEL-28, read-out: percent growth inhibition): 108% | GI50 (UACC-257; UACC-257): 9.28 µM | inhibition at 10 µM (UACC-257; UACC-257, read-out: percent growth inhibition): 61.5% | GI50 (SK-OV-3; SK-OV-3): 20 µM | inhibition at 10 µM (SK-OV-3; SK-OV-3, read-out: percent growth inhibition): 75.5% | GI50 (RXF 393; RXF 393): 1.87 µM | inhibition at 10 µM (RXF 393; RXF 393, read-out: percent growth inhibition): 132% | GI50 (UO-31; UO-31): 3 µM | inhibition at 10 µM (UO-31; UO-31, read-out: percent growth inhibition): 160% | GI50 (PC-3; PC-3): 2.81 µM | inhibition at 10 µM (PC-3; PC-3, read-out: percent growth inhibition): 85% | GI50 (MDA-MB-231/ATCC; MDA-MB-231): 2.84 µM | inhibition at 10 µM (MDA-MB-231/ATCC; MDA-MB-231, read-out: percent growth inhibition): 89.4% | GI50 (Leukaemia cell lines; read-out: GI50 MG-MID): 2.36 µM | GI50 (Leukaemia cell lines; read-out: MG-MID GI50): 2.36 µM | SI (Selectivity Index) (Leukaemia cell lines; full panel MG-MID / leukaemia subpanel MG-MID): 1.90
